Drawing on patent US20150368248A1, “2-SUBSTITUTED-6-BIARYLMETHYLAMINO-9-CYCLOPENTYL-9H-PURINE DERIVATIVES, USE THEREOF AS MEDICAMENTS, AND PHARMACEUTICAL COMPOSITIONS” (UNIVERZITA PALACKEHO V OLOMOUCI, priority 2013, published 2015), this text covers IC50 and melting point for four compounds.

pIC50: −log10 of the molar value. Where two headings read alike, the source gives them in different places. Bounds are passed on as bounds.

Data set [1] concerns Hep3B. Put plainly: MTT cytotoxicity assay (Example 30). Format: cell-based, human. The note with it: Homo sapiens, Hep3B. Here is the method:
(§1) Cytotoxicity of the compounds is the major property determining their anticancer effect in vivo. One of the parameters used, as the basis for cytotoxicity assays, is the metabolic activity of viable cells.
(§2) We have been using the following cell lines: HUH-7 and PLC/PRF/5 cell lines were maintained in DMEM supplemented with 10% fetal bovine serum, penicillin (100 U/ml) and streptomycin (100 μg/ml). […] HepG2 cell line was maintained in EMEM supplemented with 10% fetal bovine serum, sodium pyruvate (0.11 g/1), penicillin (100 U/ml) and streptomycin (100 μg/ml). All cell lines were cultivated at 37° C. in 5% CO2. For cytotoxicity assays, 3000 cells (10000 cells in case of HepG2 cell line) were seeded into each well of 96 well plate and the next day tested compounds were added at various concentrations in triplicates. Three days after drug addition MTT stock solution (5 mg/ml) was added into each well and incubated for 4 h. After this incubation period, produced formazan was dissolved by DMSO and final absorbance was measured at 570 nm with Synergy H4 Hybrid Multi-Mode Microplate Reader.
A general note: Tetrazolium dyes change colour on reduction, which living cells bring about.

The test system of data set [2] is HCC-1.1 (3sp). Put plainly: MTT cytotoxicity assay (Example 30). Format: cell-based. To be noted: Homo sapiens. The protocol: as §1, §2
Data set [3] concerns HCC-1.2 (3p). Description: MTT cytotoxicity assay (Example 30). Format: cell-based. To be noted: Homo sapiens. The protocol:
as §1, §2

Data set [4] concerns HUH-7. Description: MTT cytotoxicity assay (Example 30). Format: cell-based. The note with it: Homo sapiens. Here is the method: as §1, §2
Data set [5] concerns PLC/PRF/5. Description: MTT cytotoxicity assay (Example 30). Format: cell-based. To be noted: Homo sapiens. Here is the method: as §1, §2
For data set [6], the system named is HepG2. Put plainly: MTT cytotoxicity assay (Example 30). The note with it: Homo sapiens. Format: cell-based. The source says:
Cytotoxicity of the compounds is the major property determining their anticancer effect in vivo. One of the parameters used, as the basis for cytotoxicity assays, is the metabolic activity of viable cells. For example, a microtiter assay, which uses (3-(4,5-Dimethylthiazol-2-yl)-2,5-diphenyltetrazolium bromide (MTT), is widely used to quantitate cell proliferation and cytotoxicity. For instance, this assay is used in drug screening programs and in chemosensitivity testing. Because only metabolically active living cells reduce MTT to correspond purple formazan dye, these assays detect viable cells exclusively. The quantity of reduced MTT corresponds to the number of vital cells in the culture.
We have been using the following cell lines: HUH-7 and PLC/PRF/5 cell lines were maintained in DMEM supplemented with 10% fetal bovine serum, penicillin (100 U/ml) and streptomycin (100 μg/ml). Unique HCC-1.2 (3p) and HCC-1.1 (3sp) cell lines (Zilj et al., 2009, Future Oncol, 5(8):1169-79) and Hep3B cells were cultivated in RPMI supplemented with 10% fetal bovine serum, penicillin (100 U/ml) and streptomycin (100 μg/ml). HepG2 cell line was maintained in EMEM supplemented with 10% fetal bovine serum, sodium pyruvate (0.11 g/1), penicillin (100 U/ml) and streptomycin (100 μg/ml). All cell lines were cultivated at 37° C. in 5% CO2. For cytotoxicity assays, 3000 cells (10000 cells in case of HepG2 cell line) were seeded into each well of 96 well plate and the next day tested compounds were added at various concentrations in triplicates. Three days after drug addition MTT stock solution (5 mg/ml) was added into each well and incubated for 4 h. After this incubation period, produced formazan was dissolved by DMSO and final absorbance was measured at 570 nm with Synergy H4 Hybrid Multi-Mode Microplate Reader.

For data set [7], the system named is human umbilical vein endothelial cells (HUVEC). Description: HUVEC proliferation, Calcein AM. Format: cell-based. The note with it: Homo sapiens, HUVEC, read-out: Inhibitory concentration for HUVEC cells - IC50. Here is the method:
Novel 2-substituted-6-biarylmethylamino-9-cyclopentyl-9H-purine derivatives were tested for their potential anti-angiogenic properties; we analyzed its influence on the proliferation (Tab. 9), migration and tube formation of human umbilical vein endothelial cells (HUVEC). Confluent HUVECs were seeded in 96-well microtiter plates to detect their proliferation for 24 or 72 h using Calcein AM solution (Invitrogen) and a Fluoroskan Ascent microplate reader (Labsystems) as described previously (Krystof et al., 2011, Eur J Med Chem. 2011 September; 46(9):4289-94).

Where [8] appears, read: 72 h, MTT, three days after drug addition, read-out: Inhibitory concentration IC50, Hep3B.
[9] abbreviates: 72 h, MTT, three days after drug addition, read-out: Inhibitory concentration IC50, 3sp.
[10] abbreviates: HCC-1.2, 72 h, MTT, three days after drug addition, read-out: Inhibitory concentration IC50, 3p.
The mark [11] stands for this setting: Huh-7, 72 h, MTT, three days after drug addition, read-out: Inhibitory concentration IC50, HUH-7.
Setting [12] is: PLC-PRF-5, 72 h, MTT, three days after drug addition, read-out: Inhibitory concentration IC50, PLC/PRF/5.
Setting [13] is: HepG2, 72 h, MTT, three days after drug addition, read-out: Inhibitory concentration IC50, HepG2.
Where [14] appears, read: Table 3, read-out: Inhibitory concentration IC50, Hep3B (reference molecules).
Where [15] appears, read: Table 3, read-out: Inhibitory concentration IC50, AKH3sp (reference molecules).
[16] abbreviates: HCC-1.2, Table 3, read-out: Inhibitory concentration IC50, AKH3p (reference molecules).
[17] abbreviates: Huh-7, Table 3, read-out: Inhibitory concentration IC50, HUH-7 (reference molecules).
Where [18] appears, read: PLC-PRF-5, Table 3, read-out: Inhibitory concentration IC50, PLC/PRF/5 (reference molecules).
Where [19] appears, read: HepG2, Table 3, read-out: Inhibitory concentration IC50, HepG2 (reference molecules).

`NC1CCC(Nc2nc(NCc3ccc(Br)cc3)c3ncn(C4CCCC4)c3n2)CC1` (centres unmarked) [BP102, N^2-(4-amino-cyclohexyl)-N^6-(4-bromo-benzyl)-9-cyclopentyl-9H-purine-2,6-diamine]: the pIC50 in data set [1] (setting [8]) was 6.57; in data set [2] (setting [9]), 6.36; in data set [3] (setting [10]) it was 6.31; in data set [4] (setting [11]), 6.41; in data set [5] (setting [12]) it was 6.19; in data set [6] (setting [13]) it was under 6.00.
As usually defined, the melting point is the temperature of the solid-liquid transition. For `NC1CCC(Nc2nc(NCc3ccc(Br)nc3)c3ncn(C4CCCC4)c3n2)CC1` (centres unmarked) [BP110, N^2-(4-amino-cyclohexyl)-N^6-(6-bromo-pyridin-3-ylmethyl)-9-cyclopentyl-9H-purine-2,6-diamine], the melting point lay in the range of 114 to 116 °C. Besides, the pIC50 in data set [1] (setting [8]) was 6.31. The pIC50 in data set [2] (setting [9]) is 6.29. Also, the pIC50 in data set [3] (setting [10]) is 6.48. The pIC50 in data set [4] (setting [11]) is 6.29. For the same compound, in data set [5] (setting [12]), the pIC50 is 6.40. Also, in data set [6] (setting [13]), the pIC50 is under 6.00.
Turning to `COc1cccc2c1C(=O)c1c(O)c3c(c(O)c1C2=O)C[C@@](O)(C(=O)CO)C[C@@H]3O[C@H]1C[C@H](N)[C@H](O)[C@H](C)O1` [doxorubicin, reference compound], the pIC50 is 6.34 in data set [1] (setting [14]); 6.57 in data set [2] (setting [15]); 6.27 in data set [3] (setting [16]); 5.90 in data set [4] (setting [17]); 6.17 in data set [5] (setting [18]); 5.86 in data set [6] (setting [19]). Moreover, the pIC50 in data set [7] (24 h) and in data set [7] (72 h) was under 5.18 throughout.
Regarding `CNC(=O)c1cc(Oc2ccc(NC(=O)Nc3ccc(Cl)c(C(F)(F)F)c3)cc2)ccn1` [sorafenib, reference compound], the pIC50 in data set [1] (setting [14]) was 5.43; in data set [2] (setting [15]), 5.19; in data set [3] (setting [16]), 5.35; in data set [4] (setting [17]), 5.54; in data set [5] (setting [18]), 5.39; in data set [6] (setting [19]) it was 5.23. Besides, the results for the pIC50 in data set [7] (24 h) and in data set [7] (72 h) were under 4.30 and under 5.00, respectively.
